From patent US20090061006A1, “Layered Nanoparticles for Sustained Release of Small Molecules” (priority 2006, published 2009)
Like-named read-outs stand apart in the source and are kept apart here. Where a SMILES comes first, the peptide text is derived from it. [ ]: non-standard residue; d: D form. dPhe(4-Cl) = N[C@H](Cc1ccc(Cl)cc1)C(=O)O; d2Nal = N[C@H](Cc1ccc2ccccc2c1)C(=O)O; dCit = NC(=O)NCCC[C@@H](N)C(=O)O; d3Pal = N[C@H](Cc1cccnc1)C(=O)O

What was measured:
[1] = test system: human endometrial cancer cell lines; details: cited from earlier work
[2] = test system: human ovarian cancer cell lines; details: cited from earlier work
[3] = cited from earlier work
breast cancer xenograft = details: intravenously injected, cited from earlier work
[4] = test system: MDA-MB-435S human breast cancer cells; experiment: Cytotoxicity study, thiazolyl Blue (MTT) cell viability; type: cell-based; details: 9 hours incubation
Procedure: MDA-MB-435S cells were seeded into 12 well plates and grown in culture media containing Leibovitz's L-15 medium, 10% fetal bovine serum, 0.01 mg/mL bovine insulin, 100 IU/mL penicillin, and 100 μg/mL streptomycin. The cells were kept in tightly closed flasks at 37° C. in an incubator and grown to 70% confluence. Treatments with free Phor21-βCG(ala) were conducted at concentrations of 5, 20, and 100 μM. Treatments with silica-peptide nanoshells were conducted at corresponding amounts, equivalent to total Phor21-βCG(ala) concentrations of 5, 20, and 100 μM. On a separate plate silica nanoshells without peptide (15 mg/mL culture medium) were added to MDA-MB-435S cell cultures to determine their effect on cell viability. In all incubations, added saline was used as a control. Total incubation time was 9 hours at 37° C. Cell viability was measured in a thiazolyl Blue assay using [3-(4,5)-Dimethylthiazol-2-yl]-2,5 Diphenyltetrazolium Bromide—MTT. Cleavage of the tetrazolium ring by active mitochondria was used as a measure of the number of living cells. Statistical significance was determined using analysis of variance (ANOVA) and a two-tailed Student's t-test. Differences were considered significant at p<0.05.

[5] = in vivo
cancer cells = experiment: Potency in destroying cancer cells; type: cell-based
[6] = cited from earlier work; remark: listed apart in the source

## CC(=O)N[C@H](Cc1ccc2ccccc2c1)C(=O)N[C@H](Cc1ccc(Cl)cc1)C(=O)N[C@H](Cc1cccnc1)C(=O)N[C@@H](CO)C(=O)N[C@@H](Cc1ccc(O)cc1)C(=O)N[C@H](CCCNC(N)=O)C(=O)N[C@@H](CC(C)C)C(=O)N[C@@H](CCCNC(=N)N)C(=O)N1CCC[C@H]1C(=O)N[C@H](C)C(N)=O [Cetrorelix] (Ac-[d2Nal][dPhe(4-Cl)][d3Pal]SY[dCit]LRP[dA]-NH2)
[1]
  in vitro proliferation: inhibited
[2]
  in vitro proliferation: inhibited

## C[C@@H]1C[C@H]2[C@@H]3CCC4=CC(=O)C=C[C@]4(C)[C@@]3(F)[C@@H](O)C[C@]2(C)[C@@]1(O)C(=O)CO [Dexamethasone]
[3]
  solubility in water: insoluble

## CC(C)C[C@H](NC(=O)[C@@H](Cc1c[nH]c2ccccc12)NC(=O)[C@H](Cc1ccc(O)cc1)NC(=O)[C@H](CO)NC(=O)[C@H](Cc1c[nH]c2ccccc12)NC(=O)[C@H](Cc1c[nH]cn1)NC(=O)[C@@H]1CCC(=O)N1)C(=O)N[C@@H](CCCNC(=N)N)C(=O)N1CCC[C@H]1C(=O)NCC(N)=O [triptorelin]
[1]
  in vitro proliferation: inhibited
[2]
  in vitro proliferation: inhibited

## Phor21-βCG(ala): 35-residue conjugate peptide KFAKFAKKFAKFAKKFAKFAK-SYAVASAQAALAAR (SEQ ID NO. 1): lytic peptide Phor21 plus gonadotropin analog ligand βCG(ala) (KFAKFAKKFAKFAKKFAKFAKSYAVASAQAALAAR; Phor21-beta-CG(ala) Peptide)
Breast cancer xenograft; 8 mg/kg body weight, p<0.01
  cell death in treated tumors: lower
Breast cancer xenograft; 0.2 and 2 mg/kg body weight, p<0.05
  cell death in treated tumors: significantly higher
[4]
  activity at 100 micromolar versus 20 micromolar: significantly lower activity
[4]; free peptide, 5, 20 and 100 μM, N=6
  toxicity against breast cancer cells: destroyed
[5]
  time after which free peptide is almost completely destroyed in circulation: about three

## Phor21: membrane-disrupting lytic peptide, residues 1-21 of SEQ ID NO. 1 (KFAKFAKKFAKFAKKFAKFAK; Phor21-beta-CG(ala) Peptide)
Cancer cells
  potency in destroying cancer cells versus Hecate or Phor14: more potent

## luteinizing hormone releasing hormone [LHRH]
[6]
  half-life in vivo: ~20 min
